According to the supplement of paper PMC10307832:

Assays:
Assay in all cases: relative viability (nuclei count vs DMSO), 5 days (fraction); higher = more cells survive
[1] = compound: C[C@@]1(C(=O)Nc2ccc(F)nc2)CCCN1c1nc(Nc2cc(C3CC3)n[nH]2)c2cccn2n1 + Nc1ncn([C@H]2C[C@H](O)[C@@H](CO)O2)c(=O)n1 [Decitabine] (partner 2 µM)
Procedure, shortened: (§1)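 Values are medians from duplicate plates. Each reflects relative viability, defined as the nuclei count of treated wells over that of vehicle wells. Lung cancer cell lines in 1536-well plates were pin-tool dosed one day after seeding with one drug alone or with a fixed anchor-drug dose plus five library-drug doses (not always all listed) in √10 steps, then fixed, stained and imaged at 4× after 5 days.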

[2] = compound: C[C@@]1(C(=O)Nc2ccc(F)nc2)CCCN1c1nc(Nc2cc(C3CC3)n[nH]2)c2cccn2n1 + CC1(C)CCC(c2ccc(Cl)cc2)=C(CN2CCN(c3ccc(C(=O)NS(=O)(=O)c4ccc(N[C@H](CCN5CCOCC5)CSc5ccccc5)c(S(=O)(=O)C(F)(F)F)c4)cc3)CC2)C1 [Navitoclax] (partner 0.5 µM)
Procedure, shortened: as §1

Motesanib + Decitabine = compound: CC1(C)CNc2cc(NC(=O)c3cccnc3NCc3ccncc3)ccc21 [Motesanib] + Nc1ncn([C@H]2C[C@H](O)[C@@H](CO)O2)c(=O)n1 [Decitabine] (partner 2 µM)
Procedure, shortened: as §1

Motesanib + Foretinib = compound: CC1(C)CNc2cc(NC(=O)c3cccnc3NCc3ccncc3)ccc21 [Motesanib] + COc1cc2c(Oc3ccc(NC(=O)C4(C(=O)Nc5ccc(F)cc5)CC4)cc3F)ccnc2cc1OCCCN1CCOCC1 [Foretinib] (partner 0.25 µM)
Procedure, shortened: as §1

Cell Line	relative viability ([1]; first compound 0.04 µM)	relative viability ([1]; first compound 0.1265 µM)	relative viability ([1]; first compound 0.4 µM)	relative viability ([1]; first compound 1.265 µM)	relative viability ([2]; first compound 0.04 µM)	relative viability ([2]; first compound 0.1265 µM)	relative viability ([2]; first compound 0.4 µM)	relative viability ([2]; first compound 1.265 µM)	relative viability (Motesanib + Decitabine; first compound 0.01 µM)	relative viability (Motesanib + Decitabine; first compound 0.03162 µM)	relative viability (Motesanib + Decitabine; first compound 0.1 µM)	relative viability (Motesanib + Decitabine; first compound 0.3162 µM)	relative viability (Motesanib + Decitabine; first compound 1 µM)	relative viability (Motesanib + Foretinib; first compound 0.01 µM)	relative viability (Motesanib + Foretinib; first compound 0.03162 µM)	relative viability (Motesanib + Foretinib; first compound 0.1 µM)	relative viability (Motesanib + Foretinib; first compound 0.3162 µM)	relative viability (Motesanib + Foretinib; first compound 1 µM)
NCI-H1355	0.388	0.313	0.337	0.352	0.776	0.924	0.787	0.86	0.4	0.413	0.395	0.415	0.495	1.02	0.96	1.02	1.01	1.03
NCI-H1395	0.7	0.705	0.653	0.68	1.33	0.983	1.03	1.24	0.765	0.698	0.795	0.739	0.791	0.973	0.809	1.05	1.02	0.942
NCI-H1437	0.553	0.517	0.521	0.432	1.04	0.828	0.739	0.919	0.596	0.544	0.58	0.548	0.629	1.28	1.24	1.25	1.3	1.33
NCI-H1650	0.348	0.458	0.463	0.447	0.955	1.14	0.955	1.08	0.53	0.352	0.445	0.546	0.564	1.25	0.816	1.16	1.27	1.23
NCI-H1651	0.567	0.527	0.565	0.45	0.963	1.12	0.861	1.16	0.591	0.751	0.661	0.585	0.731	0.824	0.877	0.845	0.82	0.982
NCI-H1666	0.66	0.644	0.587	0.492	0.823	0.777	0.578	0.581	0.67	0.748	0.885	0.762	0.813	0.979	0.956	0.947	1.03	1.01
NCI-H1734	0.456	0.389	0.405	0.437	0.834	0.593	0.661	0.731	0.51	0.675	0.695	0.613	0.869	0.932	0.883	–	0.879	0.968
NCI-H1755	0.698	0.687	0.704	0.74	1	0.864	0.913	0.971	0.775	0.838	0.864	0.905	0.913	0.904	0.914	0.925	1.01	0.842
NCI-H1793	0.362	0.428	0.429	0.429	0.31	0.304	0.378	0.351	0.561	0.539	0.663	0.755	0.589	0.815	0.566	0.721	0.591	0.805
